pIC50: −log10 of the molar value. Structures can show the parent of a compound that is named as a salt.
Tests used:
[1] = system: human cartilage explants; assay: Human cartilage explant assay (IL-1 induced nitrite production); type: cell-based; conditions: inhibition of nitrite production, IL-1 stimulated explants
Excerpt: Bone pieces are rinsed twice with Dulbecco's Phosphate Buffered Saline (GibcoBRL) and once with Dulbecco's Modified Eagles Medium (GibcoBRL) and placed into a petri dish with phenol red free Minimum Essential Medium (MEM) (GibcoBRL). […] The culture media was either a custom modification of Minimum Essential Medium(Eagle) with Earle's salts (GibcoBRL) prepared without L-Arginine, without L-Glutamine and without phenol red or a custom modification of serumless Neuman and Tytell (GibcoBRL) medium prepared without L-arginine, without insulin, without ascorbic acid, without L-glutamine and without phenol red. Both are supplemented before use with 100 μM L-Arginine (Sigma), 2 mM L-glutamine, 1× HL-1 supplement (BioWhittaker), […] ascorbic acid (Sigma) and 150 pg/ml recombinant human IL-1[…] (RD Systems) to induce nitric oxide synthase. Compounds are then added in 10 μL aliquots and the explants incubated at 37° C. with 5% CO2 for 18-24 hr. The day old supernatant is then discarded and replaced with fresh culture media containing recombinant human IL-1β and compound and incubated for another 20-24 hr. […] All samples are done in quadruplicate. Unstimulated controls are cultured in media in the absence of recombinant human IL-1{tilde over (□)} IC50 values (Table I) are determined from plotting the percent inhibition of nitrite production at 6 different concentrations of inhibitor.

[2] = system: recurrent GBM; conditions: recurrent GBM after resection and radiotherapy; cited from earlier work
[3] = system: inducible nitric oxide synthase activity in vivo; assay: In vivo assay: LPS-induced plasma nitrite/nitrate in endotoxin-treated rats; parameters: species or system rat; conditions: oral administration, plasma nitrite/nitrate 5 hr post-treatment; for ED50: Rattus norvegicus
Excerpt: Plasma nitrite/nitrate levels can be determined 5 hr post-treatment.

[4] = system: C6 cells overexpressing iNOS; conditions: concentration-dependent; cited from earlier work

Row | SMILES | pIC50 ([1]; Homo sapiens) | ED50 [3] [mg/kg] | other results
1 | CC(=N)NCC(F)=CCC[C@H](N)C(=O)O (mixture of isomers) [Example B, (2S,5E/Z)-2-amino-6-fluoro-7-[(1-iminoethyl)amino]-5-heptenoic acid, dihydrochloride] | 6.70 |  | 
2 | O=NN(CCCl)C(=O)NCCCl [BCNU, 1,3-bis(β-chloroethyl)-1-nitrosourea] |  |  | response rate [2]: about 30%
3 | O=NN(CCCl)C(=O)NC1CCCCC1 [CCNU, urea, N-(2-chloroethyl)-N′ cyclohexyl-N-nitroso-(9CI)] |  |  | response rate [2]: about 30%
4 | CC(=N)NC/C(F)=C\CC[C@H](N)C(=O)O [Example A, (2S,5E)-2-amino-6-fluoro-7-[(1-iminoethyl)amino]-5-heptenoic acid, dihydrochloride] | 7.00 | < 0.1 | ED50 in endotoxin-treated rats ([3]; dihydrochloride): <0.1 mg/kg
5 | CC(=N)NC/C(F)=C/CC[C@H](N)C(=O)O [Example D, (2S,5Z)-2-amino-6-fluoro-7-[(1-iminoethyl)amino]-5-heptenoic acid, trihydrochloride, dihydrate] | 5.60 | > 10 | 
6 | CC(=NO)NC/C(F)=C\CC[C@H](N)C(=O)O [Example G, (2S,5E)-2-amino-6-fluoro-7-[(1-hydroximinoethyl)amino]-5-heptenoic acid] |  | < 0.1 | melting point: 198 to 200 °C
7 | CC(=N)NC/C(F)=C\CC[C@H](N)C(=O)Nc1nnn[nH]1 [Example H, (2S,5E)-2-amino-6-fluoro-7-[(1-iminoethyl)amino]-N-(1H-tetrazol-5-yl) 5-heptenamide, dihydrochloride] |  | < 0.3 | 
8 | CC(=N)NC/C(F)=C\CC[C@](C)(N)C(=O)O.Cl.Cl [Example HH, (2S,5E)-2-amino-2-methyl-6-fluoro-7-[(1-iminoethyl)amino]-5-heptenoic acid, dihydrochloride] | 6.40 | 0.4 | 
9 | COC[C@](N)(CSCCNC(C)=N)C(=O)O [Example J, 2-[[[2-[(1-Iminoethyl)amino]ethyl]thiolmethyl]-O-methyl-D-serine, dihydrochloride] |  |  | pIC50 [1]: 5.09
10 | CC(=N)NC/C=C\CC[C@](C)(N)C(=O)O [Example LL, (2S,5Z)-7-acetimidoylamino-2-amino-2-methyl-hept-5-enoic acid] | 6.10 | 0.3 | 
11 | Cl.N=C1CCCC[C@H](CCCC[C@@H](N)C(=O)O)N1.O.O.O [Example V, (αR,2S)-α-aminohexahydro-7-imino-1H-azepine-2-hexanoic acid, trihydrate hydrochloride] | > 5.00 | < 3 | 
12 | N=C1CCCC[C@H](CCCC[C@H](N)C(=O)O)N1 [Example X, (αS,2S)-α-aminohexahydro-7-imino-1H-azepine-2-hexanoic acid, trihydrate hydrochloride] |  |  | pIC50 [1]: > 5.00
13 | N=C1CCCC[C@H](CCCC[C@H](N)C(=O)O)N1 [Example Z, (αS,2S)-α-aminohexahydro-7-imino-1H-azepine-2-hexanoic acid, trihydrate hydrochloride] | > 5.00 |  | 
14 | COC(=O)[C@@H](N)CCCNC(=N)N[N+](=O)[O-] [L-NAME] |  |  | BCNU toxicity [4]: restoration of BCNU toxicity; nitrite levels [4]: reduced the nitrite levels

— patent publication US20050203082A1, “Combination therapy with inhibitors of inducible nitric oxide synthase and alkylating agents” (priority 2003, published 2005)
